Assay results taken from patent US9579296B2, “Compositions and methods for transdermal delivery of hormones and other medicinal agents” (Teikoku Pharma USA, Inc., priority 2012, dated 2017).
Like-named read-outs stand apart in the source and are kept apart here.

Protocol: To assay transdermal flux of levonorgestrel and ethinyl estradiol across the skin barrier, traditional Franz diffusion cells were used. Human cadaver skin epidermis was used as the substrate throughout all flux experiments to mimic in vivo conditions.
Prior to beginning the diffusion experiment, human cadaver epidermis was separated from underlying dermal tissue by floating the skin sample on 60° C. water for 2 minutes, followed by gently pealing the epidermis away from the dermal tissue with a spatula. The resulting epidermal tissue is then cut into squares having an approximate size of 2 cm×2 cm. Patch samples were then prepared by die-cutting the patches with a ⅝″ punch and arbor press. The release liner of the punched sample was then removed and the patch sample was placed on top of the epidermis with the drug adhesive layer contacting the stratum corneum. Gentle pressure was applied to the patch sample to achieve good contact between the adhesive layer and the stratum corneum.
Franz diffusion cells were assembled by placing the epidermis-patch samples between the receptor and donor chambers of the diffusion cell and clamping the chambers together with a pinch clamp. The receptor chamber was filled with phosphate buffered saline solution at pH 7.4 with 0.2% (w/w) NaN3 added as a preservative and 2% (w/w) beta-hydroxypropylcylclodextrin added to ensure sink conditions of the receptor fluid throughout the experiment. In addition, a stir bar was added to each receptor chamber. Care was taken to ensure any air bubbles underneath the skin were removed prior to beginning the flux study. The assembled diffusion cells were then placed in a stirring dry bath heater. The receptor chambers were continually stirred throughout the experiment and the temperature maintained at 32° C. Samples were taken at regular intervals over a period seven of days with fresh receptor solution being used to replace the removed sample aliquot. Sample aliquots were analyzed via high performance liquid chromatography (HPLC) with a gradient method using water (with 0.01% (w/w) formic acid) and acetonitrile (with 0.006% (w/w) formic acid) as the mobile phases, an Eclipse Plus C8 column, and ultraviolet (UV) detection at 220 nm. Flux values were calculated from the slopes of cumulative amounts of the drug in the receptor compartment versus time.
(§1) Transdermal delivery systems for administration of levonorgesterel and ethinyl estradiol were prepared and tested as described in Example 1, except that the adhesive polymer matrix contained levulinic acid and/or glyceryl monooleate.
as §1, with “monooleate, and pharmaceutical grade PVP/VA S-630 (sold under the tradename Plasdone S-630 by International Specialty Products located at Wayne, N.J.) was used.” for “monooleate.”
Transdermal flux assays measuring the flux of levonorgestrel were performed as described in Example 1.

Structure (SMILES)	flux of ethinyl estradiol, result in words (Example 1, Formulations A-I)	flux of levonorgestrel, result in words (Example 1, Formulations A-I)	flux of levonorgestrel, result in words (Example 1, Formulations A-I, listed as Glyceryl monooleate)	flux of ethinyl estradiol, result in words	flux of levonorgestrel, result in words
CCCCCCCC/C=C\CCCCCCCC(=O)OCC(O)CO (stereo not shown) [glyceryl monooleate]	increase the flux of ethinyl estradiol relative to control Formulation A	increase the flux of levonorgestrel relative to control Formulation A	larger increase in the flux of levonorgestrel than levulinic acid	–	–
CCCCCCCCCCCCCC(=O)OC(C)C [isopropyl myristate]	–	–	–	increase the flux of ethinyl estradiol relative to control Formulation A	increase the flux of levonorgestrel relative to control Formulation A
CCCCCCCCCCCCOC(=O)C(C)O (stereo not shown) [lauryl lactate]	–	–	–	–	increase the flux of levonorgestrel relative to control Formulation T
CC(=O)CCC(=O)O [levulinic acid]	–	–	–	increase the flux of ethinyl estradiol relative to control Formulation A	–
